One molecule from patent publication US9051591B2, “Bacterium of enterobacteriaceae family producing L-aspartic acid or L-aspartic acid-derived metabolites and a method for producing L-aspartic acid or L-aspartic acid-derived metabolites” (AJINOMOTO CO., INC., priority 2010, dated 2015) can be followed below.

The subject of assay [1] is ADH1-Rp. Put plainly: Screening of substrate specificity, ADH1-Rp. The settings on record: relative to aspartate; 20 mM substrate, 2 mM NADP^+, pH 9.8.
The target of assay [2] is Bradyrhizobium japonicum ADH-Bj (Bradyrhizobium diazoefficiens, UniProt Q89FY1). Put plainly: Kinetic parameters of the Bradyrhizobium japonicum ADH-Bj. To be noted: Aspartate oxidative deamination.
Bradyrhizobium japonicum ADH-Bj, sequence (Q89FY1 other isoform, or with tags, fused parts or gaps): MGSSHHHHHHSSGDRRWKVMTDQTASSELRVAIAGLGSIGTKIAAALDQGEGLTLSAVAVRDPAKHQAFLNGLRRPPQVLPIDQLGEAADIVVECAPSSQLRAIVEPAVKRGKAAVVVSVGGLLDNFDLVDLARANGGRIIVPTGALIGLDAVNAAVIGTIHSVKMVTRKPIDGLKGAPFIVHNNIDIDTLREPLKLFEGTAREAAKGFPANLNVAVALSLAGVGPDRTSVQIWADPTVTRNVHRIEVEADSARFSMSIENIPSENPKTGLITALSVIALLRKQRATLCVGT
Assay [3] concerns the target T1, ADH (Polaromonas sp.) (Polaromonas sp., UniProt Q126F5).
T1 sequence (Q126F5 1-267): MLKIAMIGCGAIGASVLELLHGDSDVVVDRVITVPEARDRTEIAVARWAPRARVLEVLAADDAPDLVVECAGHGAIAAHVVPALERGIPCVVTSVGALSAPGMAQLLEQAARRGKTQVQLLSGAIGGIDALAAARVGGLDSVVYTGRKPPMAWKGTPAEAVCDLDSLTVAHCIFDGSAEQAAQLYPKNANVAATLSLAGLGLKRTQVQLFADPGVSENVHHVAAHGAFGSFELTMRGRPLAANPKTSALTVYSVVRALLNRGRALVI
Put plainly: Screening of substrate specificity, ADH. To be noted: relative to aspartate; 20 mM substrate, 2 mM NAD^+, pH 9.8.

The target in assay [4] is Rhodopseudomonas palustris ADH1-Rp (Rhodopseudomonas palustris, UniProt Q2J3V1). Put plainly: Kinetic parameters of the Rhodopseudomonas palustris AspDH 1. The settings on record: Aspartic acid oxidative deamination.
Rhodopseudomonas palustris ADH1-Rp, sequence (Q2J3V1 entry or part of it): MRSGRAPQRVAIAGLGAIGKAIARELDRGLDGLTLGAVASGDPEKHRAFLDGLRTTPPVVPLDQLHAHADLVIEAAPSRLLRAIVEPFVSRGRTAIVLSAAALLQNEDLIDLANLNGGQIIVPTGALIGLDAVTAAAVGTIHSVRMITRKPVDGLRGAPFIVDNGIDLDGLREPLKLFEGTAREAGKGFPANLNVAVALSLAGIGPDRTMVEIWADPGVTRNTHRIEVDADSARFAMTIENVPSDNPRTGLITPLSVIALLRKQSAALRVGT
Assay [5] deals with T2, Polaromonas sp. aspartate dehydrogenase (Polaromonas sp., UniProt Q126F5).
T2 sequence (Q126F5 1-267): T1 sequence (Q126F5 1-267)
Put plainly: Regulatory properties of the ADH. To be noted: addition of 100 mM.

Assay [6] addresses T3, Polaromonas sp. ADH (Polaromonas sp., UniProt Q126F5).
T3 sequence (Q126F5 1-267): T1 sequence (Q126F5 1-267)
To be noted: Aspartic acid oxidative deamination; Michaelis-Menten plots.

Assay [7] relates to ADH-Re. Put plainly: Screening of substrate specificity, ADH-Re. The settings on record: relative to aspartate; 20 mM substrate, 2 mM NAD^+, pH 9.8.
The test system of assay [8] is ADH-Bj. The assay is described as follows: Screening of substrate specificity, ADH-Bj. The settings on record: relative to aspartate; 20 mM substrate, 2 mM NADP^+, pH 9.8.

As for `N[C@@H](CC(=O)O)C(=O)O` [Aspartic acid], the “Deamination activity, ADH1-Rp” value in assay [1] was 100 ± 8%. Further, in assay [2], the Km worked out at 27 ± 4 mM, the Vmax came to 14.3 ± 0.9 µmol/min/mg and the kcat is 7.33 ± 0.5 s⁻¹. Moreover, the “Deamination activity, ADH” value in assay [3] is listed as 100%. Also, in assay [4], the Km was determined as 13.4 ± 0.5 mM, the Vmax stood at 5.61 ± 0.08 µmol/min/mg and the kcat was determined as 2.87 ± 0.033 s⁻¹. Besides, in assay [5], the “decrease of enzyme activity in forward reaction” value worked out at 3 times. In assay [6], the Km turned out to be 1.3 ± 0.2 mM, the Vmax was found to be 26.2 ± 0.9 µmol/min/mg and the kcat is 12 ± 0.333 s⁻¹. For the same molecule, the “Deamination activity, ADH-Re” value in assay [7] is listed as 100%. Besides, in assay [8], the “Deamination activity, ADH-Bj” value is 100 ± 11%.
